Assays:
[1] = biological target: Apoptosis regulator Bcl-2 (Homo sapiens, UniProt P10415); test: Inhibitory activity against Bcl-2 functioning; assay type: functional
HL-60 = test: Percent cell death of cultured HL60 human leukemia cells at dose of 50 uM; assay type: functional
[2] = Inhibition of Interleukin-1 alpha binding to Interleukin-1 receptor
Oryctolagus cuniculus = species on record: Oryctolagus cuniculus; test: Inhibition of the absorption of dentine slices by rabbit osteoclasts; assay type: functional
[3] = biological target: T1, Proto-oncogene tyrosine-protein kinase Src (Homo sapiens, UniProt P12931); test: Inhibition of Src protein tyrosine kinase
T1 sequence (P12931 2-536 limits assumed): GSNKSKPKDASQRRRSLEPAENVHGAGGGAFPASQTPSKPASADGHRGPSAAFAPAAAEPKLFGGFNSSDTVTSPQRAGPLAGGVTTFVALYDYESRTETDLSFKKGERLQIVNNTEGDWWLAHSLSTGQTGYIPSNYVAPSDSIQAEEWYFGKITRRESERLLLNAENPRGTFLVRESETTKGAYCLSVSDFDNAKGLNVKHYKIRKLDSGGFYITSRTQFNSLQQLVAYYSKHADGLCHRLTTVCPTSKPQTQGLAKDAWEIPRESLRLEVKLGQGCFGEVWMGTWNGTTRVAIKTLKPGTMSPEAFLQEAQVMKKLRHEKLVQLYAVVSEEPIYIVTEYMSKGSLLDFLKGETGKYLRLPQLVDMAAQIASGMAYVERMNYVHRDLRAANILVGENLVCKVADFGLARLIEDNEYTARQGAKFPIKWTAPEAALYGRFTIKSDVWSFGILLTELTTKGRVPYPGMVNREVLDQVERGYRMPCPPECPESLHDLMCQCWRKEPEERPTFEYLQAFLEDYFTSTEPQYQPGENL

Phosphodiesterase 1 = Phosphodiesterase 1 (Homo sapiens, UniProt P54750+Q01064+Q14123); test: Inhibition of calmodulin-dependent PDE(3',5'-phosphodiesterase); assay type: functional
[4] = biological target: T2, Growth factor receptor-bound protein 2 (Homo sapiens, UniProt P62993); test: Inhibition of Growth factor receptor bound protein 2 SH2-domain binding
Target sequence in this assay (P62993 whole entry, the tested form may be a part): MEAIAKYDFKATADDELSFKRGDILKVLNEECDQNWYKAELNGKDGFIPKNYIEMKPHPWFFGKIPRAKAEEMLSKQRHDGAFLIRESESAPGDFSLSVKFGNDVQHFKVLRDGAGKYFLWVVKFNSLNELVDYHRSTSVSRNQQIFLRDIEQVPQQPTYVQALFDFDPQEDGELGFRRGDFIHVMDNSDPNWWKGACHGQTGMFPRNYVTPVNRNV

[5] = biological target: T2, Growth factor receptor-bound protein 2; test: Inhibition of c-Met interaction with Grb2 SH2 domain in Okajima (human gastric carcinoma) cells at 30 nM; assay type: functional; conditions: Stomach
Target sequence in this assay (P62993 whole entry, looked up, the tested form may be a part): as the sequence (P62993 whole entry, the tested form may be a part) above

Homo sapiens = species on record: Homo sapiens; test: cells
CHO = test: Inhibition of [125I]RANTES association with CCR5 expressed in CHO cells at 100 nM; assay type: functional, cell-based; conditions: Cricetulus griseus
[6] = biological target: T1, Proto-oncogene tyrosine-protein kinase Src; test: Inhibition of binding to Src SH2 domain; assay type: functional
[7] = Selective inhibition of Src SH2 domain over ZAP-70 SH2 domain; assay type: functional
[8] = Inhibition of thyroid-hormone induced bone resorption; assay type: functional
[9] = biological target: T3, Tumor necrosis factor receptor superfamily member 16 (Homo sapiens, UniProt P08138); test: Competitive binding against Nerve growth factor to p75-NGF receptor in PC12 cells; assay type: cell-based, PC-12
T3 sequence (P08138 whole entry): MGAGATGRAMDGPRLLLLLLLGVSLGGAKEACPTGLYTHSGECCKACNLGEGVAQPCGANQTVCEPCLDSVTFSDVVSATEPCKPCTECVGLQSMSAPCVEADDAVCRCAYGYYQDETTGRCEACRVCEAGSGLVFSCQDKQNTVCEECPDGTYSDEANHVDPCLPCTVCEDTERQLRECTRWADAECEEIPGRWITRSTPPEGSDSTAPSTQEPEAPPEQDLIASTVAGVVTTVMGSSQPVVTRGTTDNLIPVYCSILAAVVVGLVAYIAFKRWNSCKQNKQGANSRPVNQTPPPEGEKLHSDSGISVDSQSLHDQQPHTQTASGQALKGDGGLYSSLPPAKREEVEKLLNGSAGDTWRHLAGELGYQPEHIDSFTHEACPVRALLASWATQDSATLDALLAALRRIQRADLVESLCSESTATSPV

[10] = biological target: T4, High affinity nerve growth factor receptor (Homo sapiens, UniProt P04629); test: Inhibition of NGF-stimulated Trk A
T4 sequence (P04629 whole entry): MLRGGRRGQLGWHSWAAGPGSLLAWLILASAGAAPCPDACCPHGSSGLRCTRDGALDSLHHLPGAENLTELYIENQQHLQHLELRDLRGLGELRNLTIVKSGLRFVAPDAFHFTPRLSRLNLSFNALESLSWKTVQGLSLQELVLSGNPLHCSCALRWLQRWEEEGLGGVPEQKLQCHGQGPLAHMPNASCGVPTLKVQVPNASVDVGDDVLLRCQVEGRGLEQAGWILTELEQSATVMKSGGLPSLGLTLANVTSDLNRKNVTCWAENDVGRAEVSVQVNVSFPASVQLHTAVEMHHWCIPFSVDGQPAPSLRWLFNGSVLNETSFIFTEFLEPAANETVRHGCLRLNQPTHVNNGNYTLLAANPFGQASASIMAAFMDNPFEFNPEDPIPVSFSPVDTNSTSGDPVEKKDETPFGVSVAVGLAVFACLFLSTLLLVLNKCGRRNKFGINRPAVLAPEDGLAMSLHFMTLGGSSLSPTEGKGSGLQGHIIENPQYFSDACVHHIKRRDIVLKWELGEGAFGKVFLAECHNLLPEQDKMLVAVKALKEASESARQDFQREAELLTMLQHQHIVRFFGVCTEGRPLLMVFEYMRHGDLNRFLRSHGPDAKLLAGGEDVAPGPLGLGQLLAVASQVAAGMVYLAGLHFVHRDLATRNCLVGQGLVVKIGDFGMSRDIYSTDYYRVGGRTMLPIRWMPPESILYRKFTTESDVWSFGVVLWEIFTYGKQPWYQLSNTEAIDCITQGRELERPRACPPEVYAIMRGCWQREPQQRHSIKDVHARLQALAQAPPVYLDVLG

[11] = biological target: T4, High affinity nerve growth factor receptor; test: Inhibition of NGF-stimulated Trk A in PC12 cells; assay type: cell-based, PC-12
[12] = biological target: Nitric oxide synthase, inducible (Homo sapiens, UniProt P35228); test: Binding against the partially purified human Inducible nitric oxide synthase
Sequence of Nitric oxide synthase, inducible (P35228 whole entry): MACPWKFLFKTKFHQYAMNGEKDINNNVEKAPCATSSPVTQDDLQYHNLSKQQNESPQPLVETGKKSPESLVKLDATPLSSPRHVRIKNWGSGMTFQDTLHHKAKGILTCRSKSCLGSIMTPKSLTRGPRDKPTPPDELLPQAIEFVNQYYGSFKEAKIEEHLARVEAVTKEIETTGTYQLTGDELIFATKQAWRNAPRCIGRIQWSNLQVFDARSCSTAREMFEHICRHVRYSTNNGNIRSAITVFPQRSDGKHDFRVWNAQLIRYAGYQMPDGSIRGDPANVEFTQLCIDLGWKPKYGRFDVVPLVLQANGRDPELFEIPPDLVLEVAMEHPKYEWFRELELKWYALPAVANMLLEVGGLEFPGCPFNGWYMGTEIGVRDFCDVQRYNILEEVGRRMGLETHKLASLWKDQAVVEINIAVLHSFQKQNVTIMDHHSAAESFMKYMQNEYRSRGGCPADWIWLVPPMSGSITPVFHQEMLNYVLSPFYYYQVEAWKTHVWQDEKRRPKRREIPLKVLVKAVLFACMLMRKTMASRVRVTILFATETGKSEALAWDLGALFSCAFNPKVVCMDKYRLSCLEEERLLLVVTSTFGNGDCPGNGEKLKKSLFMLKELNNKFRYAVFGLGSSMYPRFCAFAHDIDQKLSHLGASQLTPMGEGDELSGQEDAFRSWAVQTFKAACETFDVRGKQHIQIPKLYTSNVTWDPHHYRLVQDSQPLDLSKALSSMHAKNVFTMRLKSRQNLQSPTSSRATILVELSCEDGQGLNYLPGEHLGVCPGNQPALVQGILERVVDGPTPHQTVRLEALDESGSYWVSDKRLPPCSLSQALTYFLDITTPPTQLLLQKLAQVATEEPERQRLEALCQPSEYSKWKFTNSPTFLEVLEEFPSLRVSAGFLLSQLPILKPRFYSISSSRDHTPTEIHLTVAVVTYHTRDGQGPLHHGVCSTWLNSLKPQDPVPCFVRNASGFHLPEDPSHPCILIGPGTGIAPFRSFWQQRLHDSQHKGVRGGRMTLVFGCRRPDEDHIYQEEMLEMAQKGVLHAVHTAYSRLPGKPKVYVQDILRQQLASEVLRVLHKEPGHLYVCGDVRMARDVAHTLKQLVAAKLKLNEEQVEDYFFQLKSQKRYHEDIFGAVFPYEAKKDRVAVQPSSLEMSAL

Rattus norvegicus = test: The compound was tested in vivo for suppressing LPS-stimulated plasma NOx production in rats; assay type: functional

Sequence of Apoptosis regulator Bcl-2 (P10415 whole entry): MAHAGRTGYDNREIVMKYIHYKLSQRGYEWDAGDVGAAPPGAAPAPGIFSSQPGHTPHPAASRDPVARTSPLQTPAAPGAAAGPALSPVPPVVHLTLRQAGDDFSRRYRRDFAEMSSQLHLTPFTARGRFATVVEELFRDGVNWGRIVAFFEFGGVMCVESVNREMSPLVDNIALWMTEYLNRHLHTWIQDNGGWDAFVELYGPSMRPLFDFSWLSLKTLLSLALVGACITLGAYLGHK

In the case of CCSCCCCC(c1ccc(O)cc1)C(C)(CC)c1ccc(O)cc1 (stereo not drawn), the IC50 [1] is reported as roughly 9000 nM and the Cell death (HL-60) is reported as greater than 90%.
Compound CCCCCCOc1cccc(CCOc2cc(OCCCN)ccc2C(=O)NC2c3ccccc3-c3ccccc32)c1 has an IC50 [2] of less than 10000 nM.
Work on CC(=O)NC(Cc1ccc(P(=O)(O)O)c(P(=O)(O)O)c1)C(=O)N[C@H]1CCCCc2cc(OCC3CCCCC3)c(C(N)=O)cc21 (stereo partly drawn) yielded an IC50 (Oryctolagus cuniculus) of 1600 nM and an IC50 [3] of 300 nM.
Compound CCc1cc(-c2ccc(OCC(=O)O)cc2C(C)C)ccc1-c1cccc(Cc2cccc3ccccc23)c1 has an IC50 (Phosphodiesterase 1) of 9 nM.
Work on NC(=O)C[C@H](NC(=O)C1(NC(=O)[C@H](Cc2ccc(C(C(=O)O)C(=O)O)cc2)NC(=O)C(=O)O)CCCCC1)C(=O)NCCCc1ccc2ccccc2c1 yielded an IC50 [4] of 50 nM and a Blockade [5] of 50%.
For CCc1cc(-c2ccc(OCC(=O)O)cc2C(C)C)ccc1-c1cccc(Cc2ccc3ccccc3c2)c1, the IC50 (Phosphodiesterase 1) was 20 nM.
With CC(=O)N[C@@H](Cc1ccccc1)C(=O)N[C@H]1CCCNC(=O)[C@H](CCCN=C(N)N)NC(=O)[C@H](Cc2c[nH]c3ccccc23)NC(=O)[C@@H](CC2CCCCC2)NC(=O)[C@@H]2CCCN2C1=O the IC50 (Homo sapiens) was 20 nM.
Cc1ccc(-c2ccc3c(c2)C=C(C(=O)Nc2ccc(C[N+](C)(C)C4CCOCC4)cc2)CCC3)cc1 gave an IC50 (CHO) of 1.4 nM.
CC(=O)NC(Cc1ccc(C(=O)O)c(C=O)c1)C(=O)N[C@H]1CCCCc2cc(OCC3CCCCC3)c(C(N)=O)cc21 (stereo partly drawn) showed an IC50 [6] of 5500 nM, an IC50 [7] of 60000 nM and an IC50 [8] of 42900 nM.
CCCCCCOc1ccc(CCOc2cc(OCCCN)ccc2C(=O)NC(c2ccccc2)c2ccccc2)cc1 gave an IC50 [2] of less than 10000 nM.
O=C(CC1CNCCN1c1cc(Cl)nc(-n2ccnc2)n1)NCc1ccc2c(c1)OCO2 (stereo not drawn) showed an IC50 (Inhibitory activity) of 1.1 nM.
Compound O=C1c2cccc3cc([N+](=O)[O-])cc(c23)C(=O)N1NCCO has an IC50 [9] of 3720 nM, an IC50 [10] of 5880 nM and an IC50 [11] of 3720 nM.
NCCc1ccc(OCCCN=C(N)N)cc1OCCc1ccccc1 gave an IC50 [2] of 770000 nM.
Compound COC(=O)N1CCN(c2ccnc(-n3ccnc3)n2)C(CC(=O)NCc2ccc3c(c2)OCO3)C1 (stereo not drawn) has a Ki [12] of 2.2 nM, an ED50 (Rattus norvegicus) of 1.2 mg/kg and an IC50 (Inhibitory activity) of 0.6 nM.

Source: ChEMBL document CHEMBL1135909, “Inhibition of protein-protein association by small molecules: approaches and progress” (J Med Chem, 2002)
